The results in this text go back to ChEMBL document CHEMBL1126957, “Structure-activity relationship within a series of pyrazolidinone antibacterial agents. 1. Effect of nuclear modification on in vitro activity” (1993).

≈ marks a conversion by molar mass, not a printed value.

Common to all, as to type: functional
One assay relates to Escherichia coli. The assay is described as follows: In vitro antibacterial activity against Escherichia coli EC14.
For the next assay, the system named is Staphylococcus aureus. As to the kind of experiment: In vitro antibacterial activity against Staphylococcus aureus X1.1.
Another assay has as its system Klebsiella aerogenes. The assay is described as follows: In vitro antibacterial activity against Enterobacter aerogenes C32.
A further assay has as its system Klebsiella pneumoniae. As to the kind of experiment: In vitro antibacterial activity against Klebsiella X26.
For another assay, the system named is Pseudomonas aeruginosa. The assay is described as follows: In vitro antibacterial activity against Pseudomonas X239.
The next assay concerns Serratia marcescens. The assay is described as follows: In vitro antibacterial activity against Serratia X99.
Another assay deals with Streptococcus pneumoniae. As to the kind of experiment: In vitro antibacterial activity against Streptococcus pneumoniae PARK.
The subject of the next assay is Haemophilus influenzae. The assay is described as follows: In vitro antibacterial activity against Haemophilus influenza C.L.

Consider `CO/N=C(\C(=O)N[C@H]1CN2CC(C#N)=C(C(=O)O)N2C1=O)c1csc(N)n1`, for which the MIC against Escherichia coli is 0.25 µg/mL (≈ 0.639 µM); against Staphylococcus aureus, 64 µg/mL (≈ 164 µM); in the assay with Klebsiella aerogenes, 1 µg/mL (≈ 2.56 µM); against Klebsiella pneumoniae, 0.25 µg/mL (≈ 0.639 µM); in the assay on Pseudomonas aeruginosa, above 128 µg/mL; in the assay on Serratia marcescens, 1 µg/mL (≈ 2.56 µM). For the same compound, the MIC is 0.25 µg/mL (≈ 0.639 µM) in the assay with Streptococcus pneumoniae and 0.5 µg/mL (≈ 1.28 µM) in the assay on Haemophilus influenzae.
In the case of `CO/N=C(\C(=O)NC1CN2CCC(C(C)=O)=C(C(=O)O)N2C1=O)c1csc(N)n1` (configuration not stated), the MIC in the assay on Escherichia coli, in the assay on Staphylococcus aureus, against Klebsiella aerogenes, against Klebsiella pneumoniae, with Pseudomonas aeruginosa and against Serratia marcescens was above 128 µg/mL each time. Moreover, the MIC against Streptococcus pneumoniae and with Haemophilus influenzae was above 128 µg/mL each time.
As to `CCS(=O)(=O)C1=C(C(=O)O)N2C(=O)[C@@H](NC(=O)/C(=N\OC)c3csc(N)n3)CN2C1`, the MIC is 0.125 µg/mL (≈ 0.273 µM) in the assay on Escherichia coli; 32 µg/mL (≈ 69.8 µM) against Staphylococcus aureus; 0.25 µg/mL (≈ 0.545 µM) with Klebsiella aerogenes; 0.125 µg/mL (≈ 0.273 µM) against Klebsiella pneumoniae; above 128 µg/mL in the assay with Pseudomonas aeruginosa; 0.25 µg/mL (≈ 0.545 µM) in the assay with Serratia marcescens. Moreover, the results for the MIC in the assay on Streptococcus pneumoniae and with Haemophilus influenzae were 0.125 µg/mL (≈ 0.273 µM) and 0.5 µg/mL (≈ 1.09 µM), respectively.
With `CO/N=C(\C(=O)NC1CN2CCC(C(=O)OC)=C(C(=O)O)N2C1=O)c1csc(N)n1` (configuration not stated), the MIC against Escherichia coli, in the assay on Staphylococcus aureus, in the assay on Klebsiella aerogenes, against Klebsiella pneumoniae, against Pseudomonas aeruginosa and against Serratia marcescens was above 128 µg/mL in each case. Moreover, the MIC in the assay on Streptococcus pneumoniae and in the assay on Haemophilus influenzae was above 128 µg/mL in each case.
In the case of `CCC(=O)C1=C(C(=O)O)N2C(=O)C(NC(=O)/C(=N\OC)c3csc(N)n3)CN2C1` (configuration not stated), the MIC was 4 µg/mL (≈ 9.47 µM) in the assay with Escherichia coli; 64 µg/mL (≈ 152 µM) with Staphylococcus aureus; 8 µg/mL (≈ 18.9 µM) in the assay with Klebsiella aerogenes; 2 µg/mL (≈ 4.73 µM) in the assay with Klebsiella pneumoniae; above 128 µg/mL with Pseudomonas aeruginosa; 4 µg/mL (≈ 9.47 µM) against Serratia marcescens. For the same compound, the MIC in the assay on Streptococcus pneumoniae was found to be 2 µg/mL (≈ 4.73 µM); against Haemophilus influenzae it was 8 µg/mL (≈ 18.9 µM).
In the case of `CCOC(=O)C1=C(C(=O)O)N2C(=O)C(NC(=O)/C(=N\OC)c3csc(N)n3)CN2C1` (configuration not stated), the MIC with Escherichia coli is 16 µg/mL (≈ 36.5 µM); in the assay with Staphylococcus aureus, above 128 µg/mL; against Klebsiella aerogenes, 32 µg/mL (≈ 73 µM); against Klebsiella pneumoniae it was 8 µg/mL (≈ 18.2 µM); in the assay on Pseudomonas aeruginosa, above 128 µg/mL; against Serratia marcescens it was 16 µg/mL (≈ 36.5 µM). The MIC in the assay on Streptococcus pneumoniae came to 8 µg/mL (≈ 18.2 µM); with Haemophilus influenzae, 32 µg/mL (≈ 73 µM).
For the compound `CO/N=C(\C(=O)N[C@H]1CN2CC(S(C)(=O)=O)=C(C(=O)O)N2C1=O)c1csc(N)n1`, the MIC in the assay with Escherichia coli is 0.06 µg/mL (≈ 0.135 µM); against Staphylococcus aureus, 32 µg/mL (≈ 72 µM); with Klebsiella aerogenes, 0.25 µg/mL (≈ 0.562 µM); in the assay with Klebsiella pneumoniae it was 0.125 µg/mL (≈ 0.281 µM); in the assay with Pseudomonas aeruginosa, above 128 µg/mL; against Serratia marcescens, 0.125 µg/mL (≈ 0.281 µM). In addition, the MIC amounted to 0.25 µg/mL (≈ 0.562 µM) in the assay with Streptococcus pneumoniae and 0.5 µg/mL (≈ 1.12 µM) against Haemophilus influenzae.
As to `CO/N=C(\C(=O)NC1CN2CC(C(C)=O)=C(C(=O)O)N2C1=O)c1csc(N)n1` (configuration not stated), the MIC against Escherichia coli was 2 µg/mL (≈ 4.9 µM); against Staphylococcus aureus, 32 µg/mL (≈ 78.4 µM); in the assay on Klebsiella aerogenes, 2 µg/mL (≈ 4.9 µM); against Klebsiella pneumoniae it was 1 µg/mL (≈ 2.45 µM); with Pseudomonas aeruginosa, above 128 µg/mL; with Serratia marcescens it was 4 µg/mL (≈ 9.79 µM). Also, the figures for the MIC with Streptococcus pneumoniae and against Haemophilus influenzae were 1 µg/mL (≈ 2.45 µM) and 8 µg/mL (≈ 19.6 µM), respectively.
With `CO/N=C(\C(=O)N[C@H]1CN2CC(S(=O)(=O)c3ccccc3)=C(C(=O)O)N2C1=O)c1csc(N)n1`, the MIC in the assay with Escherichia coli was 0.5 µg/mL (≈ 0.987 µM); against Staphylococcus aureus, 32 µg/mL (≈ 63.2 µM); against Klebsiella aerogenes, 1 µg/mL (≈ 1.97 µM); in the assay with Klebsiella pneumoniae, 0.125 µg/mL (≈ 0.247 µM); in the assay on Pseudomonas aeruginosa it was above 128 µg/mL; in the assay on Serratia marcescens, 1 µg/mL (≈ 1.97 µM). For the same compound, the values for the MIC in the assay with Streptococcus pneumoniae and in the assay on Haemophilus influenzae were 0.125 µg/mL (≈ 0.247 µM) and 0.5 µg/mL (≈ 0.987 µM), respectively.
`CCCOC(=O)C1=C(C(=O)O)N2C(=O)C(NC(=O)/C(=N\OC)c3csc(N)n3)CN2C1` (configuration not stated): the MIC against Escherichia coli was 32 µg/mL (≈ 70.7 µM); against Staphylococcus aureus, above 128 µg/mL; against Klebsiella aerogenes it was 64 µg/mL (≈ 141 µM); against Klebsiella pneumoniae, 8 µg/mL (≈ 17.7 µM); against Pseudomonas aeruginosa it was above 128 µg/mL; against Serratia marcescens it was 32 µg/mL (≈ 70.7 µM). Further, the MIC with Streptococcus pneumoniae worked out at 8 µg/mL (≈ 17.7 µM); in the assay on Haemophilus influenzae, 32 µg/mL (≈ 70.7 µM).
`CO/N=C(\C(=O)NC1CN2CC(C(=O)OC)=C(C(=O)O)N2C1=O)c1csc(N)n1` (configuration not stated): the MIC against Escherichia coli was 8 µg/mL (≈ 18.9 µM); with Staphylococcus aureus, above 128 µg/mL; in the assay on Klebsiella aerogenes, 16 µg/mL (≈ 37.7 µM); with Klebsiella pneumoniae it was 8 µg/mL (≈ 18.9 µM); against Pseudomonas aeruginosa, above 128 µg/mL; in the assay with Serratia marcescens it was 8 µg/mL (≈ 18.9 µM). The figures for the MIC against Streptococcus pneumoniae and against Haemophilus influenzae were 8 µg/mL (≈ 18.9 µM) and 32 µg/mL (≈ 75.4 µM), respectively.
Turning to `CO/N=C(\C(=O)NC1CN2CC(C(=O)OCc3ccccc3)=C(C(=O)O)N2C1=O)c1csc(N)n1` (configuration not stated), the MIC in the assay with Escherichia coli was 64 µg/mL (≈ 128 µM); against Staphylococcus aureus it was 128 µg/mL (≈ 256 µM); in the assay with Klebsiella aerogenes it was 64 µg/mL (≈ 128 µM); against Klebsiella pneumoniae, 64 µg/mL (≈ 128 µM); against Pseudomonas aeruginosa, above 128 µg/mL; against Serratia marcescens it was 64 µg/mL (≈ 128 µM). Moreover, the MIC against Streptococcus pneumoniae and against Haemophilus influenzae was 64 µg/mL (≈ 128 µM) in each case.
In the case of `CO/N=C(\C(=O)NC1CN2CC(S(C)(=O)=O)=C(C(=O)O)N2C1=O)c1csc(N)n1` (configuration not stated), the MIC against Escherichia coli is 0.125 µg/mL (≈ 0.281 µM); against Staphylococcus aureus, 64 µg/mL (≈ 144 µM); in the assay with Klebsiella aerogenes, 0.25 µg/mL (≈ 0.562 µM); in the assay with Klebsiella pneumoniae, 0.25 µg/mL (≈ 0.562 µM); against Pseudomonas aeruginosa it was above 128 µg/mL; in the assay on Serratia marcescens it was 0.25 µg/mL (≈ 0.562 µM). Moreover, the MIC against Streptococcus pneumoniae is 0.25 µg/mL (≈ 0.562 µM); against Haemophilus influenzae it was 2 µg/mL (≈ 4.5 µM).
For the compound `CO/N=C(\C(=O)NC1CN2CC(C#N)=C(C(=O)O)N2C1=O)c1csc(N)n1` (configuration not stated), the MIC against Escherichia coli is 0.5 µg/mL (≈ 1.28 µM); with Staphylococcus aureus, 64 µg/mL (≈ 164 µM); in the assay with Klebsiella aerogenes, 2 µg/mL (≈ 5.11 µM); in the assay on Klebsiella pneumoniae, 0.5 µg/mL (≈ 1.28 µM); in the assay with Pseudomonas aeruginosa it was above 128 µg/mL; against Serratia marcescens, 2 µg/mL (≈ 5.11 µM). For the same compound, the MIC was 0.5 µg/mL (≈ 1.28 µM) against Streptococcus pneumoniae and 1 µg/mL (≈ 2.56 µM) in the assay on Haemophilus influenzae.
